Molecules are shown by their SMILES.

Details of series [1]: method as in Narasimhan et al., 2013. As to conditions: ref Narasimhan et al., 2013, cited from earlier work.
The nature of series [2]: in vivo. To be noted: for Cmax / half-life: male, hCYP1A1/1A2 humanized, mouse, in vivo, po, 40 mg/kg, ponatinib 40 mg/kg oral gavage; for Cmax: hCYP1A1/1A2 mice; for half-life: t1/2, hCYP1A1/1A2 mice. How it is done:
All animal work was carried out on 8- to 12-week-old male mice. 3-Methylcholanthrene (3-MC) was suspended in corn oil at 4 mg/ml for administration by intraperitoneal injection at 40 mg/kg (10 μl/g body weight) daily for 3 days for hCYP1A1/2 mice. TCDD was suspended in corn oil at 1 µg/ml for administration by intraperitoneal injection at 10 µg/kg (10 μl/g body weight) daily for 3 days for wild-type (WT) mice. […] For blood sample collection, 10 μl of whole blood was withdrawn from the tail vein at the indicated time points. Samples were immediately added to a tube containing heparin solution (10 μl, 15 IU/ml), put into liquid nitrogen, and then stored at −80°C until processing. On the day of analysis, acetonitrile (80 µl containing 200 ng/ml triazolam) was added to thawed samples, which were shaken for 15 minutes, centrifuged for 10 minutes at 16,000g, and analyzed. […] An aliquot of 0.25 g was extracted with 1 ml of 80% methanol for 30 minutes on a vortex evaporator (Labconco, Kansas City, MO). After centrifugation (30 minutes at 4000g), the solvent of a 800 μl aliquot of the supernatant was removed by speed vacuum, followed by reconstitution in 500 μl methanol and water (50/50, v/v), and analyzed by LC-MRM.
Analysis of in vitro incubation and in vivo blood PK samples was carried out by ultra-performance LC-MS/MS using the Waters Acquity UPLC (Micromass, Manchester, United Kingdom) and Micromass Quattro Premier Mass Spectrometer with electrospray ionization. The chromatography was performed using a C18 column (Kinetex 1.7 µ 100 A; 50 × 2.1 mm; Phenomenex, Macclesfield, United Kingdom) at a temperature of 45°C with mobile phases of 0.1% formic acid (A) and acetonitrile and 0.1% formic acid (B). A gradient at a flow rate of 0.5 ml/min was run over 3 minutes as follows: 0–0.5 minutes, 95% A; 0.5–0.75 minutes, 95%–67.5% A; 0.75–1.50 minutes, 67.5% A, 1.50–2.00 minutes, 67.5%–50% A; 2.00–2.50 minutes, 50%–5% A; and then returning to the initial conditions for a final 0.5 minutes. The cone voltage and collision energy were optimized for each substrate and MRM data were acquired (Supplemental Table 1).
In the present study, the absolute concentrations of the metabolites in the incubation mixture could not be determined because of the lack of authentic standards. Therefore, the relative activity of the P450s was presented by comparing the concentration of the metabolite in a sample with the concentration of the same metabolite in the sample that had the highest response under the same experimental condition ([Yu et al., 2010]). The relative activity of the P450s toward metabolite formation could be calculated according to the ratio of the metabolite concentration to that in the sample with highest mass response. The PK parameters of in vivo data were calculated with a simple noncompartmental model using the WinNonLin software, version 4.1 (Pharsight (Certara, Cambridge, UK)) and are shown with the S.D. values. The P values were calculated using an unpaired t test; *P < 0.05, **P < 0.01, ***P < 0.001.

In series [3] the test system is human recombinant P450 enzymes. The series is described as follows: Ponatinib biotransformation by panel of 11 human recombinant P450 enzymes. The format is in vitro ADME. As to conditions: ponatinib 50 µM, P450 100 nM, panel of 11 enzymes. Here is the method:
All incubations were performed at 37°C and 300 rpm in a thermomixer. Human cDNA-expressed P450 isoenzymes coexpressed with human NADPH P450 oxidoreductase (see Supplemental Fig. 1 for CYP:oxidoreductase ratio data) were carefully thawed on ice prior to the experiment. […] After 5-minute preincubation at 37°C, the incubation reactions were initiated by addition of a NADPH regenerating system (final concentration: 1.3 mM NADPH, 4 mM glucose-6-phosphate, and 2 unit/ml glucose-6-phosphate dehydrogenase). After 5–120 minutes, an aliquot of 100 µl of reaction mixture was quenched with same volume of cold acetonitrile containing 400 ng/ml of triazolam as the internal standard. […] An aliquot of the supernatant fraction was analyzed by liquid chromatography (LC)–tandem mass spectrometry (MS), i.e., LC-MS/MS. […]
In the present study, the absolute concentrations of the metabolites in the incubation mixture could not be determined because of the lack of authentic standards. […] The relative activity of the P450s toward metabolite formation could be calculated according to the ratio of the metabolite concentration to that in the sample with highest mass response. The PK parameters of in vivo data were calculated with a simple noncompartmental model using the WinNonLin software, version 4.1 (Pharsight (Certara, Cambridge, UK)) and are shown with the S.D. values. […]

A further series addresses T1, mGstp1 (Mus musculus, UniProt P19157).
T1 construct: made in house
In words: Protein adducts of ponatinib with mGstp1 in the presence of human recombinant CYP1A1 (LC-MS/MS of tryptic digests). The format is in vitro ADME. To be noted: ponatinib 50 µM, CYP1A1, 10 µg/ml mGstp1, 80 minutes. How it is done:
The incubation was started by the addition of a NADPH-regenerating system (final concentration: 1.3 mM NADPH, 4 mM glucose-6-phosophate, 2 U/ml glucose-6-phosphate dehydrogenase, and 3.3 mM […]) and allowed to proceed at 37°C for 80 minutes. The reaction was terminated by cooling on ice, and the E. coli membrane containing human recombinant CYP1A1 was removed by ultracentrifugation at 41,000g at 4°C for 80 minutes. […] The solvent was exchanged to 50 mM ammonium bicarbonate and further concentrated to 100 µl.
Aliquots of the solution (10 µl) were mixed with 10 μl of 4× NuPAGE lithium dodecyl sulfate loading buffer (Invitrogen, Carsbad, CA) by incubation at 95°C for 5 minutes and then subjected to SDS-PAGE on a NuPAGE Novex 10% Bis-Tris mini gel (Invitrogen NP0341BOX). After electrophoresis at a constant 180 V for 30 minutes, gels were stained with Coomassie Blue. Bands (20–25 kDa) containing mGstp1 were cut from the gel, and after removing the Coomassie Blue from the gel by adding 100 mM ammonium bicarbonate/acetonitrile (1:1, v/v) and subsequently dehydrating with 100% acetonitrile, the solvent was removed from the gel pieces under vacuum. The residue was resuspended in 0.01 μg/μl MS grade trypsin (Promega, Madison, WI) in 25 mM ammonium bicarbonate and incubated at 37°C overnight. […]

For series [4] the following is noted: WT mice treated with TCDD versus vehicle.
A short description of series [5]: in vivo. To be noted: male, mouse, plasma, po, 40 mg/kg, ponatinib 40 mg/kg oral gavage; for Cmax: WT mice.
The conditions of series [6]: human; cited from earlier work.
The conditions of series [7]: concurrent therapy with ketoconazole (a CYP3A4 inhibitor), ref Narasimhan et al., 2013; cited from earlier work.
For series [8] the following is noted: cited from earlier work.
The mark [9] stands for this setting: hCYP1A1/1A2 mice treated with 3-MC versus vehicle.
Where [10] appears, read: 3-MC pretreatment (40 mg/kg i.p. daily for 3 days).
[11] abbreviates: ponatinib treatment, ref Cortes et al., 2012.

T1 sequence (P19157 2-210 limits assumed): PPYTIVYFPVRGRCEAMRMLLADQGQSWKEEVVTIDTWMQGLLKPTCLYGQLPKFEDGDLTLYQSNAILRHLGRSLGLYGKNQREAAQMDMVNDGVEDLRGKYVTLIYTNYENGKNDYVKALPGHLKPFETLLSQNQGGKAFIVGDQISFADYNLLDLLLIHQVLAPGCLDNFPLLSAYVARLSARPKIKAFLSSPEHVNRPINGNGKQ

Take `Cc1ccc(C(=O)Nc2ccc(CN3CCNCC3)c(C(F)(F)F)c2)cc1C#Cc1cnc2cccnn12` [N-desmethyl]: the “potency relative to ponatinib (fold less potent)” value in [1] is given as 4 fold.

With `Cc1ccc(C(=O)O)cc1C#Cc1cnc2cccnn12` [AP24600], the activity of metabolite entry in [1] (esterase/amidase product) was “inactive”.

The Cmax is the peak of the concentration-time curve. Broadly, the half-life is how long it takes for the measured level to halve. `Cc1ccc(C(=O)Nc2ccc(CN3CCN(C)CC3)c(C(F)(F)F)c2)cc1C#Cc1cnc2cccnn12` [ponatinib, 3-[2-(imidazo[1,2-b]pyridazin-3-yl)ethynyl]-4-methyl-N-4-[(4-methylpiperazin-1-yl)methyl]-3-(trifluoromethyl)phenylbenzamide]: in the series “in vivo [2]” (setting [9]), the “reduction in AUC0–8 hours” value worked out at 54% and the reduction in half-life was determined as 67%. In “in vivo [2]” (setting [10]), the Cmax turned out to be 620 ± 245 ng/mL and the half-life is 4.6 ± 0.8 h. In “in vivo [2]” (vehicle pretreatment), the peak concentration (Cmax) turned out to be 705 ± 96 ng/mL and the half-life was 13.9 ± 1.7 h. For the same compound, in series [3], the “P450 enzymes metabolizing ponatinib, disappearance of the parent drug” value is “principally metabolized via CYP3A4 and CYP1A1”. Further, the “covalent ponatinib adducts on mGstp1 cysteine residues” value on mGstp1 was “ponatinib-Gstp adducts had been formed on Cys-14 and Cys-47”. In addition, in [4], the “decrease in the ponatinib half-life” value was found to be 62% and the “reduction in the AUC0–8 hours value” is recorded as 87%. The Cmax in the series “in vivo [5]” (TCDD pretreatment (10 µg/kg i.p. daily for 3 days)) stood at 253 ± 42 ng/mL. Also, the maximum concentration (Cmax) in the series “in vivo [5]” (vehicle pretreatment) is 1210 ng/mL. Moreover, the half-life in “in vivo [5]” (t1/2, WT mice, vehicle pretreatment) was 6.2 ± 0.2 h. In addition, the “plasma half-life (t1/2)” value in series [6] was roughly 24 h. Besides, in [7], the “change of ponatinib AUC0–∞, AUC0–t and Cmax values” is “significantly increased”. For the same compound, in series [8] (clinical trials), the “alanine aminotransferase elevation, patients in clinical trials” value is reported as 10.5% and the “aspartate aminotransferase elevation, patients in clinical trials” value is 8.2%. Further, in series [8] (setting [11]), the “neutropenia, patients” value was 19% and the “thrombocytopenia, patients” value was 37%.

The values are drawn from publication PMC5596814 (The Journal of Pharmacology and Experimental Therapeutics, 2017).
